Measured values taken from PMC10216551 (2023).

Columns and labels:
[1] = test system: H1 (DNA, aptamer) GACGACGTAGCGGCGGTGTGGGCATTTTGGGCTAAAGTCGTCCCGATGCT; assay: ITC; conditions: 500 mM NaCl, 10 mM MgCl2, 50 mM HEPES pH 7.6, 25 °C
[2] = test system: H1-12 (DNA, aptamer) CGACGTAGCGGCGGTGTGGGCATTTTGGGCTAAAGTCG; assay: ITC; conditions: 500 mM NaCl, 10 mM MgCl2; 50 mM HEPES pH 7.6, 25 °C; one-site fit
[3] = test system: H1-14 (DNA, aptamer) GACGTAGCGGCGGTGTGGGCATTTTGGGCTAAAGTC; assay: ITC; conditions: 500 mM NaCl, 10 mM MgCl2; 50 mM HEPES pH 7.6, 25 °C; one-site fit
[4] = test system: H3 (DNA, aptamer) GACGACTAAGCGGCGGTGTGGGCATTTTGGGCTTTTGTCGTCCCGATGCT; assay: ITC; conditions: 500 mM NaCl, 10 mM MgCl2, 50 mM HEPES pH 7.6, 25 °C
[5] = test system: H2 (DNA, aptamer) GACGACTGTGGGCTGCCAAGGGCGCGTAGGGCGAAAGTCGTCCCGATGCT; assay: ITC; conditions: 500 mM NaCl, 10 mM MgCl2, 50 mM HEPES pH 7.6, 25 °C
[6] = test system: H7 (DNA, aptamer) GACGACGTCCCGATGCTGCAATCGTAAACCCGTTATGTCGTCCCGATGCT; assay: ITC; conditions: 500 mM NaCl, 10 mM MgCl2; 50 mM HEPES pH 7.6, 25 °C; 10 μM aptamer, 0.33 mM 5-HMF in syringe
[7] = test system: H10 (DNA, aptamer) GACGACTAGAGGGGGCCCGTTATTCGGTGATGTCTTGTCGTCCCGATGCT; assay: ITC; conditions: 500 mM NaCl, 10 mM MgCl2; 50 mM HEPES pH 7.6, 25 °C; 10 μM aptamer, 0.33 mM 5-HMF in syringe
[8] = test system: H1-21 (DNA, aptamer) GTAGCGGCGGTGTGGGCATTTTGGGCTAA; assay: ITC; conditions: 500 mM NaCl, 10 mM MgCl2; 50 mM HEPES pH 7.6, 25 °C; one-site fit
[9] = test system: FAM-H1-8 (DNA, aptamer) GACGACGTAGCGGCGGTGTGGGCATTTTGGGCTAAAGTCGTC; assay: fluorescence, quencher strand displacement; conditions: 500 mM NaCl, 10 mM MgCl2, 50 mM HEPES pH 7.6, room temperature
[10] = test system: H1-8 (DNA, aptamer) GACGACGTAGCGGCGGTGTGGGCATTTTGGGCTAAAGTCGTC; assay: ITC; conditions: 500 mM NaCl, 10 mM MgCl2; 50 mM HEPES pH 7.6, 25 °C; one-site fit

| Kd ([1]; one-site fit) [µM] | Kd [2] [µM] | Kd [3] [µM] | Kd ([4]; one-site fit) [µM] | Kd ([5]; one-site fit) [µM] | binding [6] | binding [7] | Kd [8] [µM] | Kd ([9]; apparent, BHQ1-cDNA displaced (1:2), 5-HMF 0–2000 μM) [µM] | Kd [10] [µM] | binding ([1]; FF concentration not stated) | binding ([4]; FF concentration not stated) | binding ([5]; FF concentration not stated) | binding ([9]; BHQ1-cDNA as displaced strand, up to 100 μM FF) | Compound |
| --- | --- | --- | --- | --- | --- | --- | --- | --- | --- | --- | --- | --- | --- | --- |
| 2.46 ± 1.90 | 1.22 ± 0.90 | 6.50 ± 1.80 | 12.40 ± 2.70 | 8.76 ± 2.50 | no | no | 4.7 ± 0.6 | 64 | 1.79 ± 0.60 | – | – | – | – | O=Cc1ccc(CO)o1 |
| – | – | – | – | – | – | – | – | – | – | no | no | no | no | O=Cc1ccco1 |
